Measurements from patent publication US8399381B2, “Condensed heterocyclic sulfonyl urea compound, a herbicide containing the same, and a method for weed control using the same” (Sumitomo Chemical Company, Limited, priority 2002, dated 2013).

How the values were obtained:
[1] = test system: sulfonylurea herbicide-resistant Lindernia dubia subsp. major Pennell; test: Paddy pot weeding test, flooded, two-leaf stage (Test Example 1); assay type: in vivo; settings: 1 g/are, three weeks after treatment, resistant biotype, Kawanishi Town, Yamagata Pref.
Text: (§1) A 5 cm×5 cm Jiffy Pot™ was charged with paddy soil, then water was introduced into each pot, seeds of sulfonylurea herbicide-sensitive Scirpus juncoides var. ohwianus, sulfonylurea herbicide-sensitive Lindernia procumbens (Krock.) Philcox, sulfonylurea herbicide-sensitive Lindernia dubia subsp. major Pennell, sulfonylurea herbicide-resistant Scirpus juncoides var. ohwianus, sulfonylurea herbicide-resistant Lindernia procumbens (Krock.) Philcox and sulfonylurea herbicide-resistant Lindernia dubia subsp. major Pennell were sowed therein and cultivated for a prescribed period under flooding conditions. When the plants reached the two-leave stage, the prescribed number of Jiffy Pots where the plants had been grown were transferred to a 150-cm^2 rectangular plastic pot, and water was introduced to a height of 3 cm, and a chemical diluent containing a compound was applied into the pot in an amount of 1 g/are. The chemical diluent was prepared by dissolving 1.5 g compound in 2 L of N,N-dimethylformamide (DMF) containing, 2% (W/V) surfactant Tween™ 20 and then diluting it with water to adjust the total volume to 10 L.

[2] = test system: sulfonylurea herbicide-resistant Scirpus juncoides var. ohwianus; test: as above; assay type: in vivo; settings: 1 g/are, three weeks after treatment, resistant biotype, Iwamisawa City, Hokkaido
Text: as §1

[3] = test system: sulfonylurea herbicide-sensitive Lindernia dubia subsp. major Pennell; test: as above; assay type: in vivo; settings: 1 g/are, three weeks after treatment, sensitive biotype, Makabe Town, Ibaraki Pref.
Text: as §1

[4] = test system: sulfonylurea herbicide-sensitive Lindernia procumbens (Krock.) Philcox; test: as above; assay type: in vivo; settings: 1 g/are, three weeks after treatment, sensitive biotype, Kyoto Pref.
Text: as §1

[5] = test system: sulfonylurea herbicide-sensitive Scirpus juncoides var. ohwianus; test: as above; assay type: in vivo; settings: 1 g/are, three weeks after treatment, sensitive biotype, Kyoto Pref.
Text: as §1

[6] = test system: sulfonylurea herbicide-resistant Lindernia procumbens (Krock.) Philcox; test: as above; assay type: in vivo; settings: 1 g/are, three weeks after treatment, resistant biotype, Tajiri Town, Miyagi Pref.
Text: as §1

Structure (SMILES) | melting point | R Lindernia dubia subsp. major Pennell (effect index) [1] | R Scirpus juncoides var. ohwianus (effect index) [2] | S Lindernia dubia subsp. major Pennell (effect index) [3] | S Lindernia procumbens (Krock.) Philcox (effect index) [4] | S Scirpus juncoides var. ohwianus (effect index) [5] | R Lindernia procumbens (Krock.) Philcox (effect index) [6]
C=Cc1ccc2nc(Cl)c(S(=O)(=O)NC(=O)Nc3nc(OC)cc(OC)n3)n2n1 [Compound No. 43] | – | 5 (excellent 81 to 100) | 4 (high 61 to 80) | 5 (excellent 81 to 100) | 5 (excellent 81 to 100) | 5 (excellent 81 to 100) | –
COc1cc(OC)nc(NC(=O)NS(=O)(=O)c2c(C)nc3ccc(C(C)C)nn23)n1 [Compound No. 39] | – | 5 (excellent 81 to 100) | 5 (excellent 81 to 100) | 5 (excellent 81 to 100) | 5 (excellent 81 to 100) | 5 (excellent 81 to 100) | 5 (excellent 81 to 100)
COc1cc(OC)nc(NC(=O)NS(=O)(=O)c2c(Cl)nc3ccc(C(C)C)nn23)n1 [Compound No. 40] | – | 5 (excellent 81 to 100) | 5 (excellent 81 to 100) | 5 (excellent 81 to 100) | 5 (excellent 81 to 100) | 5 (excellent 81 to 100) | 5 (excellent 81 to 100)
C/C=C/c1ccc2nc(Cl)c(S(=O)(=O)NC(=O)Nc3nc(OC)cc(OC)n3)n2n1 [Compound No. 45] | – | 5 (excellent 81 to 100) | 4 (high 61 to 80) | 5 (excellent 81 to 100) | 5 (excellent 81 to 100) | 5 (excellent 81 to 100) | –
CCCc1ccc2nc(C)c(S(=O)(=O)NC(=O)Nc3nc(OC)cc(OC)n3)n2n1 [Compound No. 36] | – | 5 (excellent 81 to 100) | 5 (excellent 81 to 100) | 5 (excellent 81 to 100) | 5 (excellent 81 to 100) | 5 (excellent 81 to 100) | 5 (excellent 81 to 100)
CCc1nc2ccc(OC)nn2c1NC(=O)NS(=O)(=O)c1nc(OC)cc(OC)n1 [Compound No. 6] | 118 to 123 °C (dec.) | – | – | – | – | – | –
CCCc1ccc2nc(Cl)c(S(=O)(=O)NC(=O)Nc3nc(OC)cc(OC)n3)n2n1 [Compound No. 38, 1-(2-chloro-6-n-propylimidazo[1,2-b]pyridazin-3-ylsulfonyl)-3-(4,6-dimethoxypyrimidin-2-yl)urea] | – | 5 (excellent 81 to 100) | 5 (excellent 81 to 100) | 5 (excellent 81 to 100) | 5 (excellent 81 to 100) | 5 (excellent 81 to 100) | 5 (excellent 81 to 100)
CCOc1ccn2nc(C)c(NC(=O)NS(=O)(=O)c3nc(OC)cc(OC)n3)c2n1 [compound 34] | – | 5 (excellent 81 to 100) | 4 (high 61 to 80) | – | 5 (excellent 81 to 100) | 4 (high 61 to 80) | –
COc1cc(OC)nc(NC(=O)NS(=O)(=O)c2c(Cl)nc3ccc(C4CC4)nn23)n1 [Compound No. 44] | – | 5 (excellent 81 to 100) | 4 (high 61 to 80) | 5 (excellent 81 to 100) | 5 (excellent 81 to 100) | 5 (excellent 81 to 100) | –
CCCc1ccc2nc(F)c(S(=O)(=O)NC(=O)Nc3nc(OC)cc(OC)n3)n2n1 [Compound No. 46] | – | 5 (excellent 81 to 100) | 5 (excellent 81 to 100) | 5 (excellent 81 to 100) | 5 (excellent 81 to 100) | 5 (excellent 81 to 100) | –
CCSc1ccc2nc(C(F)(F)F)c(NC(=O)NS(=O)(=O)c3nc(OC)cc(OC)n3)n2n1 [Compound No. 11] | 179 to 180 °C | 5 (excellent 81 to 100) | 5 (excellent 81 to 100) | 5 (excellent 81 to 100) | 5 (excellent 81 to 100) | 5 (excellent 81 to 100) | –
CCCc1nc2ccc(SC)nn2c1S(=O)(=O)NC(=O)Nc1nc(OC)cc(OC)n1 [Compound No. 31] | – | 4 (high 61 to 80) | 5 (excellent 81 to 100) | 5 (excellent 81 to 100) | 5 (excellent 81 to 100) | 5 (excellent 81 to 100) | –
CCc1nc2ccc(C)nn2c1NC(=O)NS(=O)(=O)c1nc(OC)cc(OC)n1 [Compound No. 1] | 182 to 184 °C | – | – | – | – | – | –

More lines, main results first:

melting point | Structure (SMILES) | R Lindernia dubia subsp. major Pennell (effect index) [1] | R Scirpus juncoides var. ohwianus (effect index) [2] | S Lindernia dubia subsp. major Pennell (effect index) [3] | S Lindernia procumbens (Krock.) Philcox (effect index) [4] | S Scirpus juncoides var. ohwianus (effect index) [5] | R Lindernia procumbens (Krock.) Philcox (effect index) [6]
172 to 174 °C | COc1cc(C)nc(S(=O)(=O)NC(=O)Nc2c(Cl)nc3ccc(SC)nn23)n1 [Compound No. 27] | – | – | – | – | – | –
174 to 175 °C | CCc1nc2ccc(Cl)nn2c1NC(=O)NS(=O)(=O)c1nc(OC)cc(OC)n1 [Compound No. 2] | – | – | – | – | – | –
191 to 193 °C (dec.) | COc1cc(OC)nc(S(=O)(=O)NC(=O)Nc2c(C)nc3c(C)cc(SC)nn23)n1 [Compound No. 20] | – | – | – | – | – | –
241 °C | COc1cc(OC)nc(S(=O)(=O)NC(=O)Nc2c(C)nc3ccc(OC)nn23)n1 [Compound No. 17] | – | – | – | – | – | –
168 to 169 °C | CCOc1ccc2nc(Cl)c(NC(=O)NS(=O)(=O)c3nc(OC)cc(OC)n3)n2n1 [Compound No. 23] | 4 (high 61 to 80) | 5 (excellent 81 to 100) | 5 (excellent 81 to 100) | 5 (excellent 81 to 100) | 5 (excellent 81 to 100) | –
246 to 248 °C (dec.) | COc1cc(OC)nc(S(=O)(=O)NC(=O)Nc2c(C)nc3ccc(S(C)(=O)=O)nn23)n1 [Compound No. 21] | – | – | – | – | – | –
180 to 182 °C | CCSc1ccc2nc(Cl)c(NC(=O)NS(=O)(=O)c3nc(OC)cc(OC)n3)n2n1 [Compound No. 25] | 4 (high 61 to 80) | 5 (excellent 81 to 100) | 5 (excellent 81 to 100) | 5 (excellent 81 to 100) | 5 (excellent 81 to 100) | –
180 to 181 °C | CCOc1ccc2nc(CC)c(NC(=O)NS(=O)(=O)c3nc(OC)cc(OC)n3)n2n1 [Compound No. 5] | – | – | – | – | – | –
193 to 195 °C | COc1cc(OC)nc(S(=O)(=O)NC(=O)Nc2c(Cl)nc3ccc(N(C)C)nn23)n1 [Compound No. 22] | – | – | – | – | – | –
266 to 268 °C (dec.) | COc1cc(OC)nc(S(=O)(=O)NC(=O)Nc2c(C)nc3c(C)cc(N(C)C)nn23)n1 [Compound No. 15] | – | – | – | – | – | –
169 to 171 °C | CCOc1ccc2nc(C(F)(F)F)c(NC(=O)NS(=O)(=O)c3nc(OC)cc(OC)n3)n2n1 [Compound No. 10] | – | – | – | – | – | –
